Laboratory results: article PMC7673538 (PLoS Biology, 2020)
Like-named read-outs stand apart in the source and are kept apart here.

What was measured:
in vitro [1] = conditions: monkey
in vitro [2] = conditions: human
CV-B3 [3] = experiment: microbe, parasite or virus in culture; format: cell-based, coxsackievirus B3; conditions: for EC50: Enterovirus B
HRV-B14 = experiment: microbe, parasite or virus in culture; format: cell-based, human rhinovirus; conditions: Human rhinovirus sp.
EV-D68 = experiment: microbe, parasite or virus in culture; format: cell-based, enterovirus D68; conditions: Enterovirus D
HRV-A2 = experiment: microbe, parasite or virus in culture; format: cell-based, human rhinovirus; conditions: Human rhinovirus sp., HRVA2, HeLa R19, read-out: EC50 HRV-A2
PV-1 = experiment: microbe, parasite or virus in culture; format: cell-based, poliovirus 1; conditions: Enterovirus C, HeLa R19, read-out: EC50 PV-1
CV-A24 = experiment: microbe, parasite or virus in culture; format: cell-based, coxsackievirus A24; conditions: Enterovirus C, CVA24, HeLa R19, read-out: EC50 CV-A24
EV-A71 = experiment: microbe, parasite or virus in culture; format: cell-based, enterovirus A71; conditions: Enterovirus A
CV-B3 [4] = experiment: microbe, parasite or virus in culture; format: cell-based, coxsackievirus B3; conditions: Enterovirus B, CVB3, BGM
CV-B3 [5] = experiment: microbe, parasite or virus in culture; format: cell-based, coxsackievirus B3; conditions: Enterovirus B
in vitro [6] = conditions: human; remark: listed apart in the source
[7] = CVB3, HeLa R19, read-out: CV-B3 EC50 Average
[8] = CVB3, HeLa R19, read-out: CV-B3 Exp 1 EC50
[9] = CVB3, HeLa R19, read-out: CV-B3 Exp2 EC50
[10] = CVB3, HeLa R19, read-out: EC50 HelaR19 Average
[11] = CVB3, HeLa R19, read-out: Exp 1 EC50 HelaR19
[12] = CVB3, HeLa R19, read-out: Exp 2 EC50 HelaR19
[13] = HRVB14, HeLa R19, read-out: EC50 HRV-B14
[14] = EVD68, HeLa R19, read-out: EC50 EV-D68
[15] = EVD68, HeLa R19, read-out: EC50 Exp1
[16] = EVD68, HeLa R19, read-out: EC50 Exp2
[17] = EVA71, HeLa R19, read-out: EC50 EV-A71
[18] = CVB3, HAP1, read-out: EC50 Hap1 Average
[19] = CVB3, HAP1, read-out: Exp 1 EC50 Hap1
[20] = CVB3, HAP1, read-out: Exp 2 EC50 Hap1
[21] = HRVB14, HeLa R19, read-out: EC50 Exp1
[22] = HRVB14, HeLa R19, read-out: EC50 Exp2
[23] = EVA71, HeLa R19, read-out: EC50 Exp1
[24] = EVA71, HeLa R19, read-out: EC50 Exp2

Row | Compound | CC50 (in vitro [1]; CC50 BGM Average) [µM] | CC50 (in vitro [1]; Exp 1 CC50 BGM) [µM] | CC50 (in vitro [1]; Exp 2 CC50 BGM) [µM] | CC50 (in vitro [2]; CC50 Hap1 Average) [µM] | CC50 (in vitro [2]; Exp 1 CC50 Hap1) [µM] | CC50 (in vitro [2]; Exp 2 CC50 Hap1) [µM] | EC50 (CV-B3 [3]; [7]) [µM] | EC50 (CV-B3 [3]; [8]) [µM] | EC50 (CV-B3 [3]; [9]) [µM] | EC50 (CV-B3 [3]; [10]) [µM] | EC50 (CV-B3 [3]; [12]) [µM] | EC50 (HRV-B14; [13]) [µM] | EC50 (EV-D68; [15]) [µM] | EC50 (EV-D68; [16]) [µM] | EC50 (HRV-A2) [µM] | EC50 (PV-1) [µM] | EC50 (CV-A24) [µM] | EC50 (EV-A71; [17]) [µM] | EC50 (CV-B3 [4]; read-out: EC50 BGM Average) [µM] | EC50 (CV-B3 [4]; read-out: Exp 1 EC50 BGM) [µM] | other results
1 | COc1ccc(N(Cc2ccc(F)cc2)C(=O)c2ccccn2)cc1 [Compound 5e, N-(4-fluorobenzyl)-N-(4-methoxyphenyl)picolinamide] | > 100 | > 100 | > 100 | > 100 | > 100 | > 100 | 6.44 | 6.02 | 6.86 | 8.87 | 9.32 | > 30 | 11.8 | 9.08 | > 30 | > 30 | > 30 | > 30 | 17.8 | 16.7 | CC50 (in vitro [1]; CC50): > 100 µM; CC50 (in vitro [2]; CC50): > 100 µM; EC50 (CV-B3 [3]; [11]): 8.41 µM; EC50 (EV-D68; [14]): 10.5 ± 1.37 µM; EC50 (CV-B3 [4]; read-out: Exp 2 EC50 BGM): 18.9 µM; EC50 (CV-B3 [5]; CVB3, HAP1): 15.8 ± 1.65 µM; EC50 (CV-B3 [5]; [18]): 15.9 µM; EC50 (CV-B3 [5]; [19]): 17.5 µM; EC50 (CV-B3 [5]; [20]): 14.2 µM; CC50 (in vitro [6]; CC50 Average): > 30 µM; CC50 (in vitro [6]; CC50 HelaR19 Average): > 100 µM; CC50 (in vitro [6]; Exp 1 CC50): > 30 µM; CC50 (in vitro [6]; Exp 1 CC50 HelaR19): > 100 µM; CC50 (in vitro [6]; Exp2 CC50): > 30 µM; CC50 (in vitro [6]; Exp 2 CC50 HelaR19): > 100 µM; cytotoxicity (in words) (HeLa R19 cells): no cytotoxicity
2 | COc1ccc(N(Cc2ccccc2)C(=O)c2ccco2)cc1 [Compound 19c, N-Benzyl-N-(4-methoxyphenyl)furan-2-carboxamide] | > 100 | > 100 | > 100 | > 100 | > 100 | > 100 | 4.07 | 4.32 | 3.82 | 4.41 | 4.77 | > 30 | 8.12 | 9.76 | > 30 | > 30 | > 30 | > 30 | 4.3 | 3.95 | CC50 (in vitro [1]; CC50): > 100 µM; CC50 (in vitro [2]; CC50): > 100 µM; increase or decrease of antiviral activity against CV-B3 (CV-B3 [3]): less than 3 fold; EC50 (CV-B3 [3]; CVB3, HeLa): 4.42 ± 0.36 µM; EC50 (CV-B3 [3]; [11]): 4.06 µM; EC50 (EV-D68; [14]): 8.94 ± 0.82 µM; EC50 (CV-B3 [5]; [18]): 2.12 µM; EC50 (CV-B3 [5]; [19]): 2.15 µM; EC50 (CV-B3 [5]; [20]): 2.09 µM; CC50 (in vitro [6]; CC50 Average): > 30 µM; CC50 (in vitro [6]; CC50 HelaR19 Average): > 100 µM; CC50 (in vitro [6]; Exp 1 CC50): > 30 µM; CC50 (in vitro [6]; Exp 1 CC50 HelaR19): > 100 µM; CC50 (in vitro [6]; Exp2 CC50): > 30 µM; CC50 (in vitro [6]; Exp 2 CC50 HelaR19): > 100 µM; cytotoxicity (in words) (HeLa R19 cells): did not show any cytotoxicity
3 | COc1ccc(N(Cc2ccc(C(F)(F)F)cc2)C(=O)c2ccco2)cc1 [Compound 19e, N-(4-Methoxyphenyl)-N-(4-(trifluoromethyl)benzyl)furan-2-carboxamide] | 55.9 | 55 | 56.9 | 54.9 | 55.3 | 54.5 | 0.86 | 0.73 | 0.98 | 0.93 | 0.99 | 8.38 ± 0.48 | 4.72 | 4.21 | > 30 | > 30 | > 30 | 4.08 ± 0.99 | 2.41 | 2.05 | effect of the substitution on antiviral activity against CV-B3 (in words) (CV-B3 [3]): only marginally affected antiviral activity; EC50 (HRV-B14; [21]): 7.9 µM; EC50 (HRV-B14; [22]): 8.86 µM; EC50 (EV-D68; [14]): 4.47 ± 0.26 µM; EC50 (EV-A71; EVA71, HeLa R19, read-out: EC50 Average): 4.07 µM; EC50 (EV-A71; [23]): 3.09 µM; EC50 (EV-A71; [24]): 5.06 µM; EC50 (CV-B3 [4]; read-out: Exp 2 EC50 BGM): 2.76 µM; EC50 (CV-B3 [5]; [18]): 2.85 µM; EC50 (CV-B3 [5]; [19]): 2.14 µM; EC50 (CV-B3 [5]; [20]): 3.56 µM; CC50 (in vitro [6]; CC50 Average): > 30 µM; CC50 (in vitro [6]; CC50 HelaR19 Average): 54 µM; CC50 (in vitro [6]; Exp 1 CC50): > 30 µM; CC50 (in vitro [6]; Exp 1 CC50 HelaR19): 53 µM; CC50 (in vitro [6]; Exp2 CC50): > 30 µM; CC50 (in vitro [6]; Exp 2 CC50 HelaR19): 55 µM; cytotoxicity (in words) (HeLa R19 cells; human, monkey): cytotoxicity in a similar range as the parental compound 1
4 | O=C(c1ccco1)N(Cc1ccc(S(F)(F)(F)(F)F)cc1)c1ccccc1 [Compound 19f, N-(4-(Pentafluorosulfaneyl)benzyl)-N-phenylfuran-2-carboxamide] | 31.9 | 30.5 | 33.3 | 62.5 | 61 | 64.1 | 3.1 | 3.52 | 2.68 | 3.28 | 3.11 | 5.22 ± 0.54 | 13.6 | 15.3 | > 30 | > 30 | > 30 | 4.37 ± 0.5 | 2.6 | 2.22 | CC50 (in vitro [1]; CC50): 31.9 ± 1.41 µM; effect of the substitution on antiviral activity against CV-B3 (in words) (CV-B3 [3]): only marginally affected antiviral activity; EC50 (CV-B3 [3]; [11]): 3.45 µM; EC50 (HRV-B14; [21]): 4.68 µM; EC50 (HRV-B14; [22]): 5.76 µM; EC50 (EV-A71; [23]): 3.87 µM; EC50 (EV-A71; [24]): 4.87 µM; EC50 (CV-B3 [4]; read-out: Exp 2 EC50 BGM): 2.98 µM; EC50 (CV-B3 [5]; [18]): 2.1 µM; EC50 (CV-B3 [5]; [19]): 2.3 µM; EC50 (CV-B3 [5]; [20]): 1.9 µM; CC50 (in vitro [6]; CC50 Average): > 30 µM; CC50 (in vitro [6]; CC50 HelaR19 Average): 32 µM; CC50 (in vitro [6]; Exp 1 CC50): > 30 µM; CC50 (in vitro [6]; Exp 1 CC50 HelaR19): 30 µM; CC50 (in vitro [6]; Exp2 CC50): > 30 µM; CC50 (in vitro [6]; Exp 2 CC50 HelaR19): 34 µM; CC50 (HeLa R19 cells; human): 32.9 ± 2 µM; cytotoxicity (in words) (HeLa R19 cells; human, monkey): cytotoxicity in a similar range as the parental compound 1
